Experimental data reported in ChEMBL document CHEMBL6153030, “Design, synthesis, and biological evaluation of novel pleuromutilin derivatives with methicillin-resistant Staphylococcus aureus -targeting phenol linker groups” (Eur J Med Chem, 2025).
≈ marks a conversion by molar mass, not a printed value. Calls of active or inactive are those of the source. No cut-off for these calls is given here.

Tests used:
[1] = target: T1, 70S ribosome (Staphylococcus aureus) (UniProt Q2FW31+P0A0H0+Q2FW30+Q2FW19+Q2FYU5+Q2G2Q1+Q2FZ45+Q2FW15+Q2G111+Q2FW10+Q2FXY6+Q2FXZ7+Q2FZ25+Q2FW12+Q2FXK6+Q2FW23+Q2G113+P48940+Q2FW20+Q2FW39+Q2FYF9+Q2G0N9+P0A0F4+Q2FW38+Q2FW16+P0A0F8+Q2FW13+Q2FW33+Q2FW22+Q2FZ42+Q2G0P0+Q2FXQ1+Q2FXS8+Q2FW11+Q2FW08+Q2FW17+Q2FXT0+Q2FZ60+Q2FW14+P60430+P0A0G2+Q2FWD8+Q2FZF1+Q2FYU6+Q2FY22+Q2FUQ0+Q2FXQ0+Q2FW29+Q2FW06+Q2FW07+Q2FW18+Q2FW21+P48860+Q2G2T3); experiment: Inhibition of ribosomal peptidyl transferase centre in methicillin-resistant Staphylococcus aureus ATCC43300 assessed as bacterial cell rupture at 4XMIC by scanning electron microscopy; format: functional
Staphylococcus aureus [2] = experiment: Bactericidal activity against methicillin-resistant Staphylococcus aureus ATCC 43300 assessed as log reduction of bacterial colonies at 3XMIC incubated for 96 hrs in broth followed by culturing on agar plate for 4 hrs by time-kill kinetics analysis; format: functional; conditions: time 100 hrs
[3] = Toxicity against rabbit red blood cells assessed as hemolysis rate at 100 ug/ml by absorbance based analysis; format: cell-based, Oryctolagus cuniculus, Erythrocyte; conditions: at 100 µg/mL, read-out: Activity
Staphylococcus aureus [4] = experiment: Antibacterial activity against methicillin-resistant Staphylococcus aureus ATCC43300 assessed as inhibition of bacterial growth incubated for 96 hrs by broth microdilution method; format: functional
Escherichia coli = experiment: Antibacterial activity against Escherichia coli ATCC 25922 assessed as inhibition of bacterial growth incubated for 96 hrs by broth microdilution method; format: functional
HEK293 = experiment: Cytotoxicity against HEK293 cells assessed as reduction in cell survival upto 120 ug/ml incubated for 6 hrs by CCK8 assay; format: toxicity, cell-based; conditions: human, hek293, 6 h, dose < 120 µg/ml
Staphylococcus aureus [5] = experiment: Antibacterial activity against Staphylococcus aureus ATCC 29213 assessed as inhibition of bacterial growth incubated for 96 hrs by broth microdilution method; format: functional
HepG2 = experiment: Cytotoxicity against human HepG2 cells assessed as reduction in cell survival at 250 ug/ml incubated for 6 hrs by CCK8 assay; format: toxicity, cell-based; conditions: hepg2, 6 h, dose 250 µg/ml
[6] = test system: Staphylococcus epidermidis; experiment: Antibacterial activity against methicillin-resistant Staphylococcus epidermidis ATCC 51625 assessed as inhibition of bacterial growth incubated for 96 hrs by broth microdilution method; format: functional
Staphylococcus aureus [7] = experiment: In vivo antibacterial activity against methicillin-resistant Staphylococcus aureus ATCC43300 infected in Kunming mouse assessed as decrease in bacterial load in lungs at 20 to 40 mg/kg, ip administered at 1 hr post-infection; format: functional, organism-based; conditions: dose 20-40 mg/kg
Staphylococcus aureus [8] = experiment: In vivo antibacterial activity against methicillin-resistant Staphylococcus aureus ATCC43300 infected in Kunming mouse assessed as log reduction of bacterial load in lungs at 40 mg/kg, ip administered at 1 hr post-infection and measured within 48 hrs; format: functional
Staphylococcus aureus [9] = experiment: In vivo antibacterial activity against methicillin-resistant Staphylococcus aureus ATCC43300 infected in Kunming mouse assessed as decrease in lung lesions by measuring reduced congestion, hemorrhage and inflammatory cell infiltration at 40 mg/kg, ip administered at 1 hr post-infection; format: functional, organism-based
[10] = Toxicity against Zebrafish assessed as reduction of survival of embryos measured after 96 hrs; set-up: species or system Danio rerio; conditions: in vivo
Staphylococcus aureus [11] = experiment: Bactericidal activity against methicillin-resistant Staphylococcus aureus ATCC 43300 assessed as bacterial killing at 6XMIC incubated for 96 hrs in broth followed by culturing on agar plate for 12 hrs by time-kill kinetics analysis; format: functional; conditions: time 108 hrs
[12] = Toxicity against zebrafish embryo assessed as teratogenic effect at 128 ug/ml measured after 96 hrs by microscopic analysis; set-up: species or system Danio rerio; conditions: in vivo, dose 128 µg/ml
Streptococcus pneumoniae = experiment: Antibacterial activity against Streptococcus pneumoniae ATCC 49619 assessed as inhibition of bacterial growth incubated for 96 hrs by broth microdilution method; format: functional
Staphylococcus aureus [13] = experiment: Bactericidal activity against methicillin-resistant Staphylococcus aureus ATCC43300 assessed as bacterial killing at 3XMIC incubated for 96 hrs in broth followed by culturing on agar plate for 4 hrs by time-kill kinetics analysis; format: functional; conditions: time 100 hrs
Staphylococcus aureus [14] = experiment: Antibacterial activity against methicillin-resistant Staphylococcus aureus ATCC43300 assessed as inhibition of bacterial growth measured after 17 to 18 days; format: functional; conditions: time 17-18 day
Staphylococcus aureus [15] = experiment: In vivo antibacterial activity against methicillin-resistant Staphylococcus aureus ATCC43300 infected in Kunming mouse assessed as increase in animal survival rate administered ip at 1 hr post-infection; format: functional; conditions: ATCC43300, 1 h
[16] = target: T1, 70S ribosome (Staphylococcus aureus); experiment: Inhibition of ribosomal peptidyl transferase centre in methicillin-resistant Staphylococcus aureus ATCC43300 assessed as inhibition of bacterial cell division at 4XMIC by scanning electron microscopy; format: functional

SMILES: C=C[C@]1(C)C[C@@H](OC(=O)CSc2ccccc2OCC(=O)N2CCS(=O)(=O)CC2)[C@]2(C)[C@H](C)CC[C@]3(CCC(=O)[C@H]32)[C@@H](C)[C@@H]1O
- inhibition [1]: Active
- Activity (Staphylococcus aureus [2]): -3.154 log10CFU/ml
- hemolysis at 100 ug/ml [3]: < 15%
- MIC (Staphylococcus aureus [4]): < 0.031 µg/mL
- MIC (Escherichia coli): > 64 µg/mL
- Activity (HEK293): Toxic
- MIC (Staphylococcus aureus [5]): < 0.031 µg/mL
- Activity (HepG2): Toxic
- MIC [6]: < 0.031 µg/mL
- Activity (Staphylococcus aureus [7]): Dose-dependent-effect
- Activity (Staphylococcus aureus [8]): 3 log10CFU/ml
- Activity (Staphylococcus aureus [9]): Active
- LC50 at 96 h [10]: 165 µg/mL (≈ 249 µM)
- Activity (Staphylococcus aureus [11]): 99.99%
- Activity [12]: Non-toxic
- MIC (Streptococcus pneumoniae): 0.125 µg/mL (≈ 0.189 µM)
- Activity (Staphylococcus aureus [13]): 99.9%
- MIC (Staphylococcus aureus [14]): 8 µg/mL (≈ 12.1 µM)
- ED50 (Staphylococcus aureus [15]): 6.48 mg/kg
- inhibition [16]: Active
